Laboratory results: patent publication US9868720B2 (Genentech, Inc., priority 2013, dated 2018)
pIC50, pKi: −log10 of the molar value.

Columns and labels:
[1] = test system: phosphorylation of JNK in HEK293 cells stably transfected with doxycycline-inducible Flag-tagged full length DLK; test: pJNK Cell based assay; settings: Homo sapiens; HEK293 cells with doxycycline-induced DLK, 5.5 hours compound treatment, pJNK mean intensity by imaging; read-out: p-JNK 293 IC50
Procedure: pJNK Cell based assay:HEK293 cells stably transfected with doxycycline-inducible N-terminally Flag-tagged full length DLK were plated at density of 7500 cells/well (40 μL) in 384-well Greiner bio-one μclear plate coated with Poly-D-Lysine. The cells were incubated at 37° C. in DMEM (Dulbecco's Modified Eagle Medium) media containing 10% FBS and 2 mM L-Glutamine for 20-24 hours. 5 μL of 60 μM doxycycline was added to the cells to initiate DLK expression for 20 hours at 37° C. No doxycycline was added for the negative control wells. 5 μL of compounds of formula I in various concentrations in DMEM were added to the cells and the compound treated cell culture was incubated at 37° C. for 5.5 hours prior to fixation with addition of 50 μL 4% paraformaldehyde. The wells were washed with 40 μL PBS wash twice followed by permeabilization with 0.1% Triton X-100. The cells were washed with 40 μL PBS wash twice again prior to incubation in 20 μL SuperBlock (Thermo Scientific) for 1 hour at ambient temperature. The primary antibodies (1:3000 mouse anti-Flag and 1:1000 rabbit anti-pJNK in SuperBlock) were incubated with the fixed cells overnight at 4° C. The cells were washed with 40 μL PBS twice before the addition of secondary antibodies (Anti-mouse labeled with AlexaFluor555 and anti-rabbit labeled with AlexaFluor488 in 1:2000 dilution in SuperBlock). The secondary antibodies were incubated at ambient temperature for 2 hours and were protected from light. The cells were washed with 40 μL PBS before the addition of 20 μL Hoechst 33342 (1:5000 in PBS). The plate was sealed and stored at 4° C. in the dark until imaging analyses on Opera High Content Screening System (Evotec). Three data points were reported: pJNK (mean intensity inside the search stencil), DLK (mean intensity of the 1% brightest pixels inside the search stencil) and nuclear area.

[2] = biological target: DLK kinase (N-terminally GST-tagged DLK, catalytic domain amino acid 1-520) (Homo sapiens (Human), UniProt Q12852); test: DLK TR-FRET assay; format: biochemical; settings: 30 μM ATP, MKK4 K131M substrate, read-out: DLK HTRF (Ki)
Procedure: DLK TR-FRET assay: DLK kinase reactions (20 μL) containing 5 nM N-terminally GST-tagged DLK (catalytic domain amino acid 1-520) (Carna Bioscience), 40 nM N-terminally HIS-tagged MKK4 K131M substrate, and 30 μM ATP in kinase reaction buffer (50 mM HEPES, pH 7.5, 0.01% Triton X-100, 0.01% Bovine γ-Globulins, 2 mM DTT, 10 mM MgCl2 and 1 mM EGTA), and testing compound 1:3 serial diluted starting at 20 uM were incubated at ambient temperature for 60 minutes in 384 well OptiPlate (Perkin Elmer). To quench kinase reactions and detect phosphorylated MKK4, 15 μL of TR-FRET antibody mixture containing 2 nM anti-phosphorylated MKK4 labeled with Europium cryptate (Cisbio) and 23 nM anti-HIS labeled with D2 (Cisbio) in detection buffer (25 mM Tris pH 7.5, 100 mM NaCl, 100 mM EDTA, 0.01% Tween-20, and 200 mM KF) was added to the reaction mixture. The detection mixture was incubated for 3 hours at ambient temperature and the TR-FRET was detected with an EnVision multilabel plate reader (Perkin-Elmer) using the LANCE/DELFIA Dual Enh label from Perkin-Elmer (excitation filter: UV2 (TRF) 320 and emission filters: APC 665 and Europium 615).

Sequence of DLK kinase (N-terminally GST-tagged DLK, catalytic domain amino acid 1-520) (Q12852 1-520): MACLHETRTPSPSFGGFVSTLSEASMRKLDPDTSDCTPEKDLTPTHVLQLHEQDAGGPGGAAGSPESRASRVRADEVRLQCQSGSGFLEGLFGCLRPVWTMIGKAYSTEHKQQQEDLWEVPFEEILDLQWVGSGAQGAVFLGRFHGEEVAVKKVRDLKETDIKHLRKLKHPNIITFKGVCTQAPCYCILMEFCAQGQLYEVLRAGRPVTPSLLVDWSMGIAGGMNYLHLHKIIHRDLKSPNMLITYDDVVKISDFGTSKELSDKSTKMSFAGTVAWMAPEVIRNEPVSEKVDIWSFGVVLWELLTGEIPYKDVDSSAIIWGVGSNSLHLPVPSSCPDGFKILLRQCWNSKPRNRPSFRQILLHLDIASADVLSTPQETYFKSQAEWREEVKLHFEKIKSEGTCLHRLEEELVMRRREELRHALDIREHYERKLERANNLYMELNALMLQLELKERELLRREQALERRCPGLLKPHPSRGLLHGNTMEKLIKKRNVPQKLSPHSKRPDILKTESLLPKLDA

Compound | pKi [2] | pIC50 [1]
CC(=O)N1CCC(C#N)(c2cc(Nc3cc(C(F)(F)F)ccn3)nc(N3CCC(F)(F)C3)n2)CC1 [1-Acetyl-4-[2-(3,3-difluoro-pyrrolidin-1-yl)-6-(4-trifluoromethyl-pyridin-2-ylamino)-pyrimidin-4-yl]-piperidine-4-carbonitrile] | – | 6.22
FC1(F)CCN(c2nc(Nc3cc(C4CCC4)ccn3)cc(C3CCNCC3)n2)C1 [(4-Cyclobutyl-pyridin-2-yl)-[2-(3,3-difluoro-pyrrolidin-1-yl)-6-piperidin-4-yl-pyrimidin-4-yl]-amine] | – | 6.70
CN(CCO)c1nc(Nc2cc(C(F)(F)F)ccn2)cc(C2CCNC2)n1 (stereo not drawn) [Example 47, 2-{Methyl-[4-pyrrolidin-3-yl-6-(4-trifluoromethyl-pyridin-2-ylamino)-pyrimidin-2-yl]-amino}-ethanol] | 7.90 | –
CCc1ccnc(Nc2cc(C3CCCN(C(=O)c4ccccc4)C3)nc(C)n2)c1 (stereo not drawn) | 6.71 | –
CC(=O)N1CCC(c2cc(Nc3cc(C)ccn3)nc(N3CCCCC3)n2)C1 (stereo not drawn) [Example 90, 1-{3-[6-(4-Methyl-pyridin-2-ylamino)-2-piperidin-1-yl-pyrimidin-4-yl]-pyrrolidin-1-yl}-ethanone] | 6.98 | –
C[C@@H]1CC[C@@H](C)N1c1nc(Nc2cc(C(F)(F)F)ccn2)cc(C2CCNCC2)n1 [Example 143, [2-((2R,5R)-2,5-Dimethyl-pyrrolidin-1-yl)-6-piperidin-4-yl-pyrimidin-4-yl]-(4-trifluoromethyl-pyridin-2-yl)-amine] | 7.98 | –
COc1ccnc(Nc2cc(C3CCNCC3)nc(N3CCCC3C)n2)c1 (stereo not drawn) [Example 125, (4-Methoxy-pyridin-2-yl)-[2-(2-methyl-pyrrolidin-1-yl)-6-piperidin-4-yl-pyrimidin-4-yl]-amine] | 7.82 | –
CC(=O)N1CCCC(c2cc(Nc3cc(C)ccn3)nc(-c3ccccc3)n2)C1 (stereo not drawn) [Example 106, 1-{3-[6-(4-Methyl-pyridin-2-ylamino)-2-phenyl-pyrimidin-4-yl]-piperidin-1-yl}-ethanone] | 7.51 | –
COc1ccnc(Nc2cc(C3CCN(C(C)=O)C3)nc(N3CCCC3C)n2)c1 (stereo not drawn) [Example 129, 1-{3-[6-(4-Methoxy-pyridin-2-ylamino)-2-(2-methyl-pyrrolidin-1-yl)-pyrimidin-4-yl]-pyrrolidin-1-yl}-ethanone] | 7.00 | –
CN1CCCC(c2cc(Nc3cc(C(F)(F)F)ccn3)nc(N3CC4CCC(C3)O4)n2)C1 (stereo not drawn) [Example 329, [6-(1-Methyl-piperidin-3-yl)-2-(8-oxa-3-aza-bicyclo[3.2.1]oct-3-yl)-pyrimidin-4-yl]-(4-trifluoro-methyl-pyridin-2-yl)-amine] | 7.15 | –
CC(=O)N1CCCC(c2cc(Nc3cc(C)ccn3)nc(N3CCC3)n2)C1 (stereo not drawn) [Example 87, 1-{3-[2-Azetidin-1-yl-6-(4-methyl-pyridin-2-ylamino)-pyrimidin-4-yl]-piperidin-1-yl}-ethanone] | 6.58 | –
Cn1nccc1-c1nc(Nc2cc(C(F)(F)F)ccn2)cc(C2CCN(CC3CCOCC3)C2)n1 (stereo not drawn) [Example 388, {2-(2-Methyl-2H-pyrazol-3-yl)-6-[1-(tetrahydro-pyran-4-ylmethyl)-pyrrolidin-3-yl]-pyrimidin-4-yl]-(4-trifluoromethyl-pyridin-2-yl)-amine] | 8.06 | –
O=C1CC(c2cc(Nc3cc(C(F)(F)F)ccn3)nc(C3CCOC3)n2)CCN1 (stereo not drawn) [Example 392, 4-[2-(Tetrahydro-furan-3-yl)-6-(4-trifluoromethyl-pyridin-2-ylamino)-pyrimidin-4-yl]-piperidin-2-one] | 6.92 | –
CC(=O)N1CCC(C#N)(c2cc(Nc3cc(C(F)(F)F)ccn3)nc(N3CCC(F)(F)C3)n2)CC1 [Example 156, 1-Acetyl-4-[2-(3,3-difluoro-pyrrolidin-1-yl)-6-(4-trifluoromethyl-pyridin-2-ylamino)-pyrimidin-4-yl]-piperidine-4-carbonitrile] | 7.57 | –
FC1(F)CCN(c2nc(Nc3cc(Cl)ccn3)cc(C3CCNCC3)n2)C1 [Example 120, (4-Chloro-pyridin-2-yl)-[2-(3,3-difluoro-pyrrolidin-1-yl)-6-piperidin-4-yl-pyrimidin-4-yl]-amine] | 8.07 | –
FC(F)(F)c1ccnc(Nc2cc(C3CCOCC3)nc(N3CCCOCC3)n2)c1 [Example 295, [2-[1,4]Oxazepan-4-yl-6-(tetrahydro-pyran-4-yl)-pyrimidin-4-yl]-(4-trifluoromethyl-pyridin-2-yl)-amine] | 7.08 | –
C[C@@H]1CCCN1c1nc(Nc2cc(C(F)(F)F)ccn2)cc(C2CCNCC2)n1 [Example 111, [2-((R)-2-Methyl-pyrrolidin-1-yl)-6-piperidin-4-yl-pyrimidin-4-yl]-(4-trifluoromethyl-pyridin-2-yl)-amine] | 9.07 | –

Now from value to molecule, other results behind:

pKi [2] | Compound | pIC50 [1]
6.98 | O=C(C(F)F)N1CCC(c2cc(Nc3cc(C(F)(F)F)ccn3)nc(N3CC4CCC(C3)O4)n2)CC1 [Example 294, 2,2-Difluoro-1{-[2(8-oxa-3-aza-bicyclo[3.2.1]oct-3-yl)-6-(4-trifluoro-methyl-pyridin-2-ylamino)-pyrimidin-4-yl]-piperidin-1-yl}-ethanone] | –
6.84 | CC(C)Cc1nc(Nc2cc(C(F)(F)F)ccn2)cc(C2CCCN(C(=O)C(F)F)C2)n1 (stereo not drawn) [Example 195, 2,2-Difluoro-1-{3-[2-isobutyl-6-(4-trifluoromethyl-pyridin-2-ylamino)-pyrimidin-4-yl]-piperidin-1-yl}-ethanone] | –
6.76 | O=C(C(F)F)N1CCC(c2cc(Nc3cc(C(F)(F)F)ccn3)nc(N3CC4CCC(C3)O4)n2)C1 (stereo not drawn) [Example 373, 2,2-Difluoro-1-{3-[2-(8-oxa-3-aza-bicyclo[3.2. 1]oct-3-yl)-6-(4-trifluoro-methyl-pyridin-2-ylamino)-pyrimidin-4-yl]-pyrrolidin-1-yl}-ethanone] | –
7.43 | CS(=O)(=O)N1CCCC(c2cc(Nc3cc(C(F)(F)F)ccn3)nc(C3CCCC3)n2)C1 (stereo not drawn) [Example 385, [2-Cyclopentyl-6-(1-methanesulfonyl-piperidin-3-yl)-pyrimidin-4-yl]-(4-trifluoromethyl-pyridin-2-yl)-amine] | –
7.59 | FC(F)(F)c1ccnc(Nc2cc(C3CCCN(C4COC4)C3)nc(C3CCC3)n2)c1 (stereo not drawn) [Example 407, [2-Cyclobutyl-6-(1-oxetan-3-yl-piperidin-3-yl)-pyrimidin-4-yl]-(4-trifluoro-methyl-pyridin-2-yl)-amine] | –
7.28 | Cc1nc(Nc2cc(C(F)(F)F)ccn2)cc(C2CCCN(C(=O)c3ccc(F)cc3Cl)C2)n1 (stereo not drawn) | –
7.00 | CC(=O)N1CC(c2cc(Nc3cc(C(F)(F)F)ccn3)nc(C3CC3)n2)C1 [Example 356, 1-{3-[2-Cyclopropyl-6-(4-trifluoromethyl-pyridin-2-ylamino)-pyrimidin-4-yl]-azetidin-1-yl}-ethanone] | –
7.36 | CC(=O)N1CCC(c2cc(Nc3cc(C(F)(F)F)ccn3)nc(N3CCC(C(F)(F)F)C3)n2)CC1 (stereo not drawn) [Example 206, 1-{4-[6-(4-Trifluoromethyl-pyridin-2-ylamino)-2-(3-trifluoromethyl-pyrrolidin-1-yl)-pyrimidin-4-yl]-piperidin-1-yl}-ethanone] | –
8.05 | FC(F)(F)c1ccnc(Nc2cc(C3CCCN(C4COC4)C3)nc(C3CCCC3)n2)c1 (stereo not drawn) [Example 391, [2-Cyclopentyl-6-(1-oxetan-3-yl-piperidin-3-yl)-pyrimidin-4-yl]-(4-trifluoromethyl-pyridin-2-yl)-amine] | –
7.57 | O=C(C(F)F)N1CCCC(c2cc(Nc3cc(C(F)(F)F)ccn3)nc(N3CCC(F)(F)C3)n2)C1 (stereo not drawn) [Example 178, 1-{3-[2-(3,3-Difluoro-pyrrolidin-1-yl)-6-(4-trifluoromethyl-pyridin-2-ylamino)-pyrimidin-4-yl]-piperidin-1-yl}-2,2-difluoro-ethanone] | –
